Drawing on ChEMBL document CHEMBL1157179, “A CoMSIA study on the adenosine kinase inhibition of pyrrolo[2,3-d]pyrimidine nucleoside analogues” (Bioorg Med Chem, 2008), this text covers log(10'3/IC50) for 29 compounds.

The experiment concerns the target Adenosine kinase (Homo sapiens) (UniProt P55263).

Chain of Adenosine kinase (Homo sapiens) (P55263 2-362 limits assumed): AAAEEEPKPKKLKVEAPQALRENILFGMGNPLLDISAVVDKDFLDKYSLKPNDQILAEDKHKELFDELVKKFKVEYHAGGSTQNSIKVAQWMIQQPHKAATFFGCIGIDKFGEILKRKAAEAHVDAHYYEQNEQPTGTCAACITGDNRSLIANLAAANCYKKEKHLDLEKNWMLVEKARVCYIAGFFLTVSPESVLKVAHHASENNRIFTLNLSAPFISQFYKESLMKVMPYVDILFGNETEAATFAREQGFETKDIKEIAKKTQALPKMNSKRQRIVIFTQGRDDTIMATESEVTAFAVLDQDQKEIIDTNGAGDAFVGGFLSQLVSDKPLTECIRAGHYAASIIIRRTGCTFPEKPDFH

For `C[C@H]1O[C@@H](n2cc(Br)c3c(Cl)ncnc32)[C@H](O)[C@@H]1O`, the log(10'3/IC50) was determined as 4.3.
With `CC[C@H]1O[C@@H](n2cc(I)c3c(N)ncnc32)[C@H](O)[C@@H]1O` the figure was 4.22.
With `C[C@H]1O[C@@H](n2cc(I)c3c(SCc4ccccc4)ncnc32)[C@H](O)[C@@H]1O` the figure was 3.
With `CSc1cn([C@@H]2O[C@H](C)[C@@H](O)[C@H]2O)c2ncnc(N)c12` the figure was 2.87.
For `C[C@H]1O[C@@H](n2cc(I)c3c(S)ncnc32)[C@H](O)[C@@H]1O`, the log(10'3/IC50) was 2.19.
Compound `CNc1ncnc2c1c(I)cn2[C@@H]1O[C@H](CO)[C@@H](O)[C@H]1O` returned a log(10'3/IC50) of 2.92.
The figure for `COC[C@H]1O[C@@H](n2cc(I)c3c(N)ncnc32)[C@H](O)[C@@H]1O` is 2.92.
Take `[N-]=[N+]=NC[C@H]1O[C@@H](n2cc(I)c3c(N)ncnc32)[C@H](O)[C@@H]1O`: the log(10'3/IC50) amounted to 4.46.
With `C=CCSc1ncnc2c1c(I)cn2[C@@H]1O[C@H](C)[C@@H](O)[C@H]1O` the figure was 2.55.
`CSc1cn([C@@H]2O[C@H](C)[C@@H](O)[C@H]2O)c2ncnc(Cl)c12` displayed a log(10'3/IC50) of 4.15.
With `NC[C@H]1O[C@@H](n2cc(I)c3c(Cl)ncnc32)[C@H](O)[C@@H]1O` the figure was 7; with `C[C@H]1O[C@@H](n2cc(C#N)c3c(N)ncnc32)[C@H](O)[C@@H]1O`, 3.51.
With `NC[C@H]1O[C@@H](n2cc(I)c3c(N)ncnc32)[C@H](O)[C@@H]1O` the figure was 6.22.
With `Nc1ncnc2c1c(Br)cn2[C@@H]1O[C@H](CO)[C@@H](O)[C@H]1O` the figure was 3.92; with `CC[C@H]1O[C@@H](n2cc(Br)c3c(N)ncnc32)[C@H](O)[C@@H]1O`, 3.3.
In the case of `[N-]=[N+]=NC[C@H]1O[C@@H](n2cc(Br)c3c(Cl)ncnc32)[C@H](O)[C@@H]1O`, the log(10'3/IC50) is 4.
The figure for `C[C@H]1O[C@@H](n2cc(I)c3c(SCc4ccc([N+](=O)[O-])cc4)ncnc32)[C@H](O)[C@@H]1O` is 2.7; for `OC[C@H]1O[C@@H](n2cc(I)c3c(Cl)ncnc32)[C@H](O)[C@@H]1O` it is 4.62; for `N#Cc1cn([C@@H]2O[C@H](CO)[C@@H](O)[C@H]2O)c2ncnc(N)c12` it is 3.51.
With `[N-]=[N+]=NC[C@H]1O[C@@H](n2cc(I)c3c(Cl)ncnc32)[C@H](O)[C@@H]1O` the figure was 5.05; with `[N-]=[N+]=NC[C@H]1O[C@@H](n2cc(Br)c3c(N)ncnc32)[C@H](O)[C@@H]1O`, 4.2.
Compound `C=C[C@H]1O[C@@H](n2cc(I)c3c(N)ncnc32)[C@H](O)[C@@H]1O` yielded a log(10'3/IC50) of 4.
With `NC[C@H]1O[C@@H](n2cc(Br)c3c(N)ncnc32)[C@H](O)[C@@H]1O` the figure was 6.7.
The figure for `Nc1ncnc2c1c(Cl)cn2[C@@H]1O[C@H](CO)[C@@H](O)[C@H]1O` is 3.68.
In the case of `C[C@H]1O[C@@H](n2cc(I)c3c(Cl)ncnc32)[C@H](O)[C@@H]1O`, the log(10'3/IC50) was determined as 5.52.
The figure for `CSc1ncnc2c1c(I)cn2[C@@H]1O[C@H](C)[C@@H](O)[C@H]1O` is 4.35; for `NC[C@H]1O[C@@H](n2ccc3c(N)ncnc32)[C@H](O)[C@@H]1O` it is 1.89; for `Cc1cn([C@@H]2O[C@H](C)[C@@H](O)[C@H]2O)c2ncnc(Cl)c12` it is 3.27.
`CCCCSc1ncnc2c1c(I)cn2[C@@H]1O[C@H](C)[C@@H](O)[C@H]1O` showed a log(10'3/IC50) of 3.
